Columns and labels:
C. neoformans = conditions: RPMI1640 broth, 35° C., 72 hours, visual reading; expressed as a range value
L. monocytogenes (+) = test: Antibacterial MIC test (CLSI); assay type: cell-based; conditions: MHB liquid medium, 37° C., 24 hours
Experimental: (§1) The MIC test was conducted in accordance CLSI guidelines. […] As a positive control, Nofloxacin and Vancomycin were used.

B. cereus (+) = test: Antibacterial MIC test (CLSI); assay type: cell-based; conditions: MHB liquid medium, 37° C., 24 hours
Experimental: as §1

M. luteus (+) = test: Antibacterial MIC test (CLSI); assay type: cell-based; conditions: MHB liquid medium, 37° C., 24 hours
Experimental: as §1

B. coagulans (+) = test: Antibacterial MIC test (CLSI); assay type: cell-based; conditions: MHB liquid medium, 37° C., 24 hours
Experimental: as §1

B. subtilis (+) = test: Antibacterial MIC test (CLSI); assay type: cell-based; conditions: MHB liquid medium, 37° C., 24 hours
Experimental: as §1

P. acnes (+) = test: Antibacterial MIC test (CLSI); assay type: cell-based; conditions: MHB liquid medium, 37° C., 24 hours
Experimental: as §1

E. coli (−) = test: Antibacterial MIC test (CLSI); assay type: cell-based; conditions: MHB liquid medium, 37° C., 24 hours
Experimental: as §1

S. aureus enterica (−) = test: Antibacterial MIC test (CLSI); assay type: cell-based; conditions: MHB liquid medium, 37° C., 24 hours
Experimental: as §1

S. aureus (+) = conditions: MHB liquid medium, 37° C., 24 hours
Experimental: (§2) The antibacterial activities against Gram-positive bacteria, Gram-negative bacteria or multi-drug resistant bacteria were evaluated for the compounds of the present invention. The MIC test was conducted in accordance CLSI guidelines. E. coli(−), P. aeruginosa(−), and S. enterica(−) were used as Gram-negative bacteria, B. cereus(+), B. subtilis(+), B. coagulans(+), L. monocytogenes(+), M. luteus(+), P. acnes(+), S. epidermidis(+), and S. aureus(+) were used as Gram-positive bacteria. Methicillin-resistant Staphylococcus aureus (MRSA) was used as multi-drug resistant bacteria. The bacterial cells were incubated until the OD600 of the single colonies reached 0.1. […] Subsequently, bacterial cells were incubated at 37° C. for 24 hours, and then the MICs (μg/ ? ) were determined by visual reading and optical density detection at 600 nm (OD600). As a positive control, Nofloxacin and Vancomycin were used.

S. epidermidis (+) = conditions: MHB liquid medium, 37° C., 24 hours
Experimental: as §2

C. albicans = conditions: RPMI1640 broth, 35° C., 48 hours, visual reading; expressed as a range value
MRSA = test: Antibacterial MIC test (CLSI); assay type: cell-based, Methicillin-resistant Staphylococcus aureus; conditions: MHB liquid medium, 37° C., 24 hours
Experimental: as §1

A. fumigatus = conditions: visual reading; expressed as a range value
C. glabrata = conditions: RPMI1640 broth, 35° C., 48 hours, visual reading; expressed as a range value
Experimental: An in vitro antifungal susceptibility test was performed in accordance with the US Clinical and Laboratory Standards Institute (CLSI) guidelines to measure the degree of antifungal activity of the compounds synthesized in the Preparation Examples against opportunistic pathogenic fungi. […] The MIC value (μg/ ? ) is expressed as a range value. Specifically, Candida species and Cryptococcus neoformans were incubated in a Sabouraud dextrose agar (SDA) (Sigma-Aldrich) solid medium for 24 and 48 hours, respectively to obtain single colonies. The obtained single colonies were suspended in 0.85% physiological saline to prepare fungal cell suspension (1 to 5×10^6 cells/ ? ). Fungal cells 2000-fold diluted in RPMI1640 broth (Sigma-Aldrich) were seeded on 96-well plates (5×10^2 to 2.5×10^3 cells/ ? , 195 ? /well). Serial two-fold dilutions (128, 64, 32, 16, 8, 4, 2, 1, and 0.5 μg/ ? ) of compounds were prepared by diluting the compounds synthesized according to the above preparation examples. Then, 5 ? from each dilution was added to the well of the 96-well plate containing fungal cell suspension to give a final suspension of 200 ? per well. […] As a positive control, amphotericin B (AMB), which is highly toxic to the human body but is known as a representative antifungal agent, was used.

Compound	MIC (μg/mL) C. neoformans (C. neoformans)	MIC L. monocytogenes (+) (L. monocytogenes (+)) [µg/mL]	MIC B. cereus (+) (B. cereus (+)) [µg/mL]	MIC M. luteus (+) (M. luteus (+)) [µg/mL]	MIC B. coagulans (+) (B. coagulans (+)) [µg/mL]	MIC B. subtilis (+) (B. subtilis (+)) [µg/mL]	MIC P. acnes (+) (P. acnes (+)) [µg/mL]	MIC E. coli (−) (E. coli (−)) [µg/mL]	MIC S. aureus enterica (−) (S. aureus enterica (−)) [µg/mL]	MIC S. aureus (+) (S. aureus (+)) [µg/mL]	MIC S. epidermidis (+) (S. epidermidis (+)) [µg/mL]	MIC (μg/mL) C. albicans (C. albicans)	MIC MRSA (MRSA) [µg/mL]	MIC (μg/mL) A. fumigatus (A. fumigatus)	MIC (μg/mL) C. glabrata (C. glabrata)
CCCCC(N)C(=O)NCc1ccc(-c2ccc(Cl)c(Cl)c2)cc1.Cl (racemic) [Compound 46, (R)/(S)-2-amino-N-((3′,4′-dichloro-[1,1′-biphenyl]-4-yl)methyl)hexanamide hydrochloride]	0.5~4 μg/mL	8	16	8	4	8	8	32	32	8	8	2~8 μg/mL	8	2~8 μg/mL	2~8 μg/mL
CCCC(NC)C(=O)NCc1ccc(-c2ccc(Cl)c(Cl)c2)cc1.Cl (racemic) [Compound 51, (R)/(S)-N-((3′,4′-dichloro-[1,1′-biphenyl]-4-yl)methyl)-2-(methylamino)pentanamide hydrochloride]	2~8 μg/mL	16	32	16	4	16	16	>32	>32	16	16	4~16 μg/mL	16	4~16 μg/mL	4~16 μg/mL
CCC(N)C(=O)NCCc1ccc(-c2ccc(Cl)c(Cl)c2)cc1.Cl (racemic) [Compound 73, (R)/(S)-2-amino-N-(2-(3′,4′-dichloro-[1,1′-biphenyl]-4-yl)ethyl)butanamide hydrochloride]	2~8 μg/mL	8	32	8	<4	8	8	8	16	8	8	8~32 μg/mL	8	8~32 μg/mL	8~32 μg/mL
CCCCC(N)C(=O)NCCc1ccc(-c2ccc(C(F)(F)F)cc2)cc1.Cl (racemic) [Compound 78, (R)/(S)-2-amino-N-(2-(4′-(trifluoromethyl)-[1,1′-biphenyl]-4-yl)ethyl)hexanamide hydrochloride]	2~8 μg/mL	<4	16	8	<4	<4	>64	8	16	8	8	4~16 μg/mL	8	4~16 μg/mL	4~16 μg/mL
CCC(N)C(=O)NCCc1ccc(-c2ccc(OC(F)(F)F)cc2)cc1.Cl (racemic) [Compound 79, (R)/(S)-2-amino-N-(2-(4′-(trifluoromethoxy)-[1,1′-biphenyl]-4-yl)ethyl)butanamide hydrochloride]	8~32 μg/mL	16	64	16	<4	16	16	16	32	16	8	8~32 μg/mL	16	8~32 μg/mL	8~32 μg/mL
CCCCC(N)C(=O)NCCc1ccc(-c2ccc(OC(F)(F)F)cc2)cc1.Cl (racemic) [Compound 81, (R)/(S)-2-amino-N-(2-(4′-(trifluoromethoxy)-[1,1′-biphenyl]-4-yl)ethyl)hexanamide hydrochloride]	2~8 μg/mL	<4	16	<4	<4	4	8	8	16	8	8	2~8 μg/mL	8	2~8 μg/mL	2~8 μg/mL
CCCC(NC)C(=O)NCCc1ccc(-c2ccc(Cl)c(Cl)c2)cc1.Cl (racemic) [Compound 84, (R)/(S)-N-(2-(3′,4′-dichloro-[1,1′-biphenyl]-4-yl)ethyl)-2-(methylamino)pentanamide hydrochloride]	2~8 μg/mL	16	32	16	8	16	16	>32	>32	16	16	4~1 μg/mL	16	4~1 μg/mL	4~1 μg/mL
CCCCC(NC)C(=O)NCCc1ccc(-c2ccc(Cl)c(Cl)c2)cc1.Cl (racemic) [Compound 85, (R)/(S)-N-(2-(3′,4′-dichloro-[1,1′-biphenyl]-4-yl)ethyl)-2-(methylamino)hexanamide hydrochloride]	0.5~4 μg/mL	16	32	8	4	16	16	>32	>32	16	16	0.5~4 μg/mL	16	0.5~4 μg/mL	0.5~4 μg/mL
CCC(NC)C(=O)NCCc1ccc(-c2ccc(C(F)(F)F)cc2)cc1.Cl (racemic) [Compound 86, (R)/(S)-2-(methylamino)-N-(2-(4′-(trifluoromethyl)-[1,1′-biphenyl]-4-yl)ethyl)butanamide hydrochloride]	8~32 μg/mL	16	64	16	<4	32	16	32	64	32	16	16~64 μg/mL	32	16~64 μg/mL	16~64 μg/mL
CCCCC(NC)C(=O)NCCc1ccc(-c2ccc(C(F)(F)F)cc2)cc1.Cl (racemic) [Compound 88, (R)/(S)-2-(methylamino)-N-(2-(4′-(trifluoromethyl)-[1,1′-biphenyl]-4-yl)ethyl)hexanamide hydrochloride]	2~8 μg/mL	<4	>64	>64	<4	32	<4	8	>64	8	8	4~16 μg/mL	8	4~16 μg/mL	4~16 μg/mL

Reference: patent publication US12180139B2, “Method for preparing aminoalkanoic acid derivative containing biphenyl group” (AMTIXBIO CO., LTD., priority 2019, dated 2024)
